Like-named read-outs stand apart in the source and are kept apart here.
What was measured:
SARS-CoV-2 [1] = test: Inhibitory activity of cytopathic effect (CPE) in Vero E6/TMPRSS2 cells; type: cell-based
SARS-CoV-2 3CL protease = SARS-CoV-2 3CL protease (Severe acute respiratory syndrome coronavirus 2, UniProt P0DTD1); test: Inhibitory activity test against SARS-CoV-2 3CL proteases; type: biochemical
SARS-CoV-2 [2] = test: Inhibitory activity of cytopathic effect (CPE) in HEK293T/ACE2-TMPRSS2 cells; type: cell-based; conditions: Severe acute respiratory syndrome coronavirus 2, HEK-293T, 72 h
[3] = Severe acute respiratory syndrome coronavirus 2, VeroE6/TMPRSS2, 50% SARS-CoV-2 infected cell death inhibitory concentration, class symbols
[4] = read-out: IC50 (50% SARS-CoV-2 3CL protease inhibitory concentration)
[5] = Severe acute respiratory syndrome coronavirus 2, VeroE6/TMPRSS2, 72 h, 50% SARS-CoV-2 infected cell death inhibitory concentration, CellTiter-Glo 2.0 after 3 days culture
[6] = HEK293T/ACE2-TMPRSS2 cells, cultured 3 days, CellTiter-Glo 2.0 luminescence, read-out: EC50 (50% SARS-CoV-2 infected cell death inhibitory concentration)
[7] = 50% SARS-CoV-2 infected cell death inhibitory concentration, HEK293T/ACE2-TMPRSS2 cells, CellTiter-Glo 2.0 after 3 days culture, read-out: EC50
[8] = read-out: EC50 (50% SARS-CoV-2 infected cell death inhibitory concentration)
[9] = IC50 (50% SARS-CoV-2 3CL protease inhibitory concentration)

SMILES | IC50 (SARS-CoV-2 3CL protease; [4]) [µM] | EC50 (SARS-CoV-2 [2]; [6]) [µM] | also measured
COc1cc(-c2cc(C#N)ccc2Cl)cc2c1c(=O)n(-c1cncc(C)c1)c(=O)n2Cc1ccc(F)c(C#N)c1 [Compound I-0027] | < 0.1 | – | EC50 (SARS-CoV-2 [1]; [3]): < 1 µM
Cc1cncc(-n2c(=O)c3c(F)cc(-c4cc(C(N)=O)ccc4Cl)cc3n(Cc3cc(F)c(F)cc3F)c2=O)c1 [Compound I-0055] | < 0.1 | – | EC50 (SARS-CoV-2 [1]; [3]): < 1 µM
COc1cc(-c2cc(C(=O)NCCO)ccc2Cl)cc2c1c(=O)n(-c1cncc(C)c1)c(=O)n2Cc1ccc(F)c(C#N)c1 [Compound I-0194] | < 0.1 | – | EC50 (SARS-CoV-2 [1]; [3]): 1 to 10 µM
COc1cc(-c2cc3c(cc2Cl)NC(=O)C3)cc2c1c(=O)n(-c1cncc(C)c1)c(=O)n2Cc1cc(C#N)c(F)cc1C [Compound I-0160] | 0.00073 | – | EC50 (SARS-CoV-2 [1]; [5]): 0.67 µM
COc1cc(-c2cc3cn[nH]c3cc2Cl)cc2c1c(=O)n(-c1cncc(C)c1)c(=O)n2Cc1cc(C#N)ccc1Cl [Compound I-0170] | < 0.1 | – | EC50 (SARS-CoV-2 [1]; [3]): < 1 µM
COc1cc(-c2cc(C(N)=O)ccc2Cl)cc2c1c(=O)n(Cc1ncn(C)n1)c(=O)n2Cc1cc(F)c(F)c(F)c1 [Compound I-0034] | < 0.1 | – | EC50 (SARS-CoV-2 [1]; [3]): 1 to 10 µM
COc1cc(-c2cc3c(cc2Cl)NC(=O)C3)cc2c1c(=O)n(-c1cncc(C)c1)c(=O)n2Cc1cc(Cl)c(F)cn1 [Compound I-0059] | 0.002 | – | EC50 (SARS-CoV-2 [1]; [5]): 0.335 µM
COc1cc(-c2cc3cn[nH]c3cc2Cl)cc2c1c(=O)n(-c1cncc(C)c1)c(=O)n2Cc1cc(C#N)c(F)cc1C [Compound I-0163] | 0.0011 | – | EC50 (SARS-CoV-2 [1]; [5]): 0.273 µM
Cc1cncc(-n2c(=O)c3c(F)cc(-c4cc(CO)ccc4Cl)cc3n(Cc3ccc(F)c(C#N)c3)c2=O)c1 [Compound I-0054] | < 0.1 | – | EC50 (SARS-CoV-2 [1]; [3]): < 1 µM
Cc1cncc(-n2c(=O)c3c(Cl)cc(-c4cc(C(N)=O)ccc4Cl)cc3n(Cc3cc(F)c(F)c(F)c3)c2=O)c1 [Compound I-0007] | 0.019 | – | EC50 (SARS-CoV-2 [1]; [5]): 1.14 µM
Cc1cncc(-n2c(=O)c3c(F)cc(-c4cc(C#N)ccc4Cl)cc3n(Cc3cc(F)c(F)c(F)c3)c2=O)c1 [Compound I-0049] | < 0.1 | – | EC50 (SARS-CoV-2 [1]; [3]): < 1 µM
O=c1[nH]c(N2CCC[C@@H]2CO)cc2c1c(=O)n(-c1cnc3ccccn13)c(=O)n2Cc1cc(F)c(F)c(Cl)c1 [Compound I-0623] | < 0.1 | < 0.1 | –
COc1nc(N2C[C@@H]3[C@H](C2)C3(F)F)cc2c1c(=O)n(-c1cnc3cc(F)ccn13)c(=O)n2-c1ccc(F)c(Cl)c1 [Compound I-0759] | < 0.1 | < 0.1 | –
COc1nc(N2CCC(F)(F)C2)cc2c1c(=O)n(-c1cnc3cc(F)c(Cl)cn13)c(=O)n2-c1ccc(F)c(Cl)c1 [Compound I-0655] | < 0.1 | < 0.1 | –
COc1cc(-c2ccc(CC#N)cc2Cl)cc2c1c(=O)n(Cc1ncn(C)n1)c(=O)n2Cc1cc(F)c(F)c(F)c1 [Compound I-0907] | < 0.1 | 0.1 to 1 | –
Cn1cnc(Cn2c(=O)c3c4c(c(N5CCCC5=O)cc3n(Cc3cc(F)c(F)c(Cl)c3)c2=O)CCO4)n1 [Compound I-0871] | 0.0066 | – | EC50 (SARS-CoV-2 [2]; [7]): 0.011 µM
COc1nc(N2CC(O)(C(F)(F)F)C2)cc2c1c(=O)n(-c1cnc3cc(F)ccn13)c(=O)n2-c1ccc(F)c(Cl)c1 [Compound I-0753] | 0.021 | – | EC50 (SARS-CoV-2 [2]; [7]): 0.0357 µM
COc1nc(N2CCC(F)(F)C2)cc2c1c(=O)n(-c1cncc(C)c1)c(=O)n2-c1ccc(F)c(Cl)c1 [Compound I-0954] | < 0.1 | < 0.1 | –
COc1nc2c(=O)n(Cc3ncn(C)n3)c(=O)n(Cc3cc(C#N)c(F)cc3C)c2cc1-c1cc(C#N)ccc1Cl [Compound I-0723] | < 0.1 | < 0.1 | –

SMILES | IC50 (SARS-CoV-2 3CL protease; [4]) [µM] | EC50 (SARS-CoV-2 [2]; [6]) [µM] | also measured
COc1cc(N2[C@@H]3CC[C@H]2CNC3)cc2c1c(=O)n(-c1cnc3ccccn13)c(=O)n2Cc1cc(F)c(F)c(F)c1 [Compound I-0666] | – | – | EC50 (SARS-CoV-2 [2]; [8]): 0.1 to 1 µM; IC50 (SARS-CoV-2 3CL protease; [9]): < 0.1 µM
C=Cc1cc2c(c(OC)n1)c(=O)n(-c1cnc3cc(F)ccn13)c(=O)n2-c1ccc(F)c(F)c1 [Compound I-1047] | < 0.1 | 0.1 to 1 | –
COc1nc(N2CC[C@@H](OC(F)F)C2)cc2c1c(=O)n(-c1cnc3cc(F)ccn13)c(=O)n2-c1ccc(F)c(Cl)c1 [Compound I-0763] | < 0.1 | < 0.1 | –
COc1nc(N2C[C@@H]3C[C@H]2CO3)cc2c1c(=O)n(-c1cnc3cc(F)ccn13)c(=O)n2-c1ccc(F)c(C(F)F)c1 [Compound I-0960] | < 0.1 | < 0.1 | –
COc1cc(-c2cccc(C#N)c2Cl)cc2c1c(=O)n(Cc1ncn(C)n1)c(=O)n2Cc1cc(F)c(F)c(F)c1 [Compound I-0847] | < 0.1 | 0.1 to 1 | –
O=c1c2c(=O)n(-c3cnc4cc(F)ccn34)c(=O)n(-c3ccc(F)c(Cl)c3)c2cc2n1CC[C@H]1CCCCN21 [Compound I-1063] | < 0.1 | 0.1 to 1 | –
COc1cc(-c2ncc(N)cc2Cl)cc2c1c(=O)n(Cc1ncn(C)n1)c(=O)n2Cc1cc(F)c(F)c(F)c1 [Compound I-0834] | < 0.1 | < 0.1 | –
COc1nc(N2CC[C@@H](C#N)C2)cc2c1c(=O)n(-c1cnc3cc(F)ccn13)c(=O)n2-c1ccc(F)c(C(F)F)c1 [Compound I-0958] | < 0.1 | < 0.1 | –
CCN(CC)c1cc2c(c(OC)n1)c(=O)n(-c1cnc3cc(F)ccn13)c(=O)n2-c1ccc(F)c(Cl)c1 [Compound I-1058] | < 0.1 | < 0.1 | –
COc1nc(N2CCC(O)(C(F)F)C2)cc2c1c(=O)n(-c1cnc3cc(F)ccn13)c(=O)n2-c1ccc(F)c(Cl)c1 (stereo not shown) [Compound I-1056] | < 0.1 | < 0.1 | –
CCNc1cc2c(c(OC)n1)c(=O)n(-c1cnc3cc(F)ccn13)c(=O)n2-c1ccc(F)c(Cl)c1 [Compound I-0996] | < 0.1 | < 0.1 | –
COc1nc(N2CC[C@@H](F)C2)cc2c1c(=O)n(-c1cnc3cc(F)ccn13)c(=O)n2-c1ccc(F)c(F)c1 [Compound I-0982] | < 0.1 | < 0.1 | –
COc1nc2c(=O)n(Cc3ncn(C)n3)c(=O)n(Cc3cc(C#N)ccc3C)c2cc1-c1cc(C#N)ccc1Cl [Compound I-0549] | < 0.1 | 0.1 to 1 | –
COc1nc(N2CCC3(COC3)C2)cc2c1c(=O)n(-c1cnc3cc(F)ccn13)c(=O)n2-c1ccc(F)c(Cl)c1 [Compound I-1039] | < 0.1 | < 0.1 | –
[2H]C([2H])([2H])O[C@@H]1CCN(c2cc3c(c(OC)n2)c(=O)n(-c2cncc(Cl)c2C)c(=O)n3-c2ccc(F)c(Cl)c2)C1 (atropisomer, axis not shown) [Compound I-0947] | 0.0023 | – | EC50 (SARS-CoV-2 [2]; [7]): 0.00634 µM
COc1nc(N2CC[C@@H](F)C2)cc2c1c(=O)n(Cc1ncn(C)n1)c(=O)n2-c1ccc(C)c(Cl)c1 [Compound I-0800] | < 0.1 | < 0.1 | –
COc1nc(N2CCC(F)(F)C2)cc2c1c(=O)n(-c1cnc3cc(F)c(F)cn13)c(=O)n2-c1ccc(F)c(Cl)c1 [Compound I-1009] | < 0.1 | < 0.1 | –
COc1nc(N2C3CCC(O)C2CC3)cc2c1c(=O)n(Cc1ncn(C)n1)c(=O)n2Cc1cc(F)c(F)c(F)c1 (stereo not shown) [Compound I-0610] | – | – | EC50 (SARS-CoV-2 [2]; [8]): < 0.1 µM; IC50 (SARS-CoV-2 3CL protease; [9]): < 0.1 µM
N#Cc1ccc(Cl)c(-c2cc3c(c4c2C(O)CO4)c(=O)n(-c2cncc(Cl)c2)c(=O)n3Cc2cc(F)c(F)c(F)c2)c1 (stereo not shown) [Compound I-0859] | 0.0019 | – | EC50 (SARS-CoV-2 [2]; [7]): 0.0187 µM
